{"source": "patent US4966962A", "about": "“Reverse analogue of actinomycin D” (Trustees of Boston University, priority 1988, dated 1990)", "key": {"[1]": {"system": "supercoiled closed-circular pBR322 DNA", "test": "Cleavage of closed circular pBR322 DNA", "format": "biochemical", "settings": "20° C., 1 h, Na2S2O4, FeCl2", "method": "The cleavage of DNA was followed by monitoring of the conversion of supercoiled closed-circular pBR322 DNA to open-circular DNA (analyzed by agarose gel electrophoresis and quantitated by staining with 0.5 ug/mL of ethidium bromide for 30 min and densitometry; (Table II). SAD and RAD show strong DNA-cleaving ability in the presence of sodium hydrosulfite and ferrous chloride. Presumably, sodium hydrosulfite acts as a reducing agent and regenerates Fe(II) from Fe(III) to produce a continuous source of the active metal ion. When the DNA-cleaving reaction with the analogues was performed at 20° C., the ratio of cleaved DNA (open circular form DNA versus closed circular DNA) was almost maximum within 1 h. […] Cleavage of DNA by the analogues is aided by the actinomycin chromopeptide moiety, which acts as a site-specific binder to DNA, and is effected by the aminoquinone function which is chelated to the ferrous ion during the process, and this is the likely candidate which generates the radical species.\nPlasmid DNA pBR322 (0.5 ug) was dissolved in /8 μL of a reaction buffer (5 mM […], 10 mM Tris-HCl). To this solution, 1 μL of the 10 mM aqueous solution of the agent containing 1 mM FeCl2 was added. The mixture was incubated for 0.5-2 h at 20° or 37° C. Then, the incubation mixture was mixed with 10 uL of sample loading buffer (50% glycerin in 2 X Boyer's buffer containing 0.01% bromophenol blue). Finally, 5 uL of the mixture was analyzed by 0.7% agarose gel electrophoresis (120 V, Boyer's buffer; the migration distance of bromophenol blue was 5.0 cm). The gel was stained with […] of ethidium bromide and then quantitated by densitometry.\n^a Ten microliters of 200 u M pBR322 DNA nucelotides in UM 10 mM\nTrisHCl (pH 7.8) and 50 mM NaCl, containing 4 mM Na2 --S2\nO4 and 100 μM FeCl2, was incubated with drug concentration a\n20° C. for 1 h; the reaction mixture was kept saturated with air\nthroughout the incubation period.\n^b Percentage of DNA was calculated from the amounts of openand\nclosedcir- cular DNA in the incubation mixture."}, "B16 melanoma": {"system": "B16 melanoma", "test": "In vivo antitumor activity against B16 melanoma", "design": "species or system BDF1 mice", "method": "^a 0.2 mL of 1:5 (weight/volume) brei of B16 melanoma implanted\nip on day 0 in groups of nine BDF1 mice. Drugs administered ip^b\nMST (range), median survival time in days (range of days for death of\nindividual animal). ^c % ILS (surv), percent increase in life span\n(survivors on day 65/total injected)."}, "P388 Leukemia": {"system": "P388 Leukemia", "test": "Minimum effective dose in P388 tumor bearing mice", "format": "in vivo", "excerpt": "^a Drugs administered ip once on days 1, 5, and 9 starting 1 day afte\ntumor implantation. Determinations were made from analysis of plotted\nlogdose response data. ^b MED (minimum effective dose) is the dose\n(milligram/killogram) providing an increase in life span of 45% over"}, "[2]": {"test": "Maximum tolerated dose (LD10) in tumor-free male mice", "settings": "ip days 1, 5, 9; deaths observed during 21 days; from plot of log dose vs percent mortality", "method": "The analogues were also tested in tumor-free male mice for their LD10 values (Table XIV). The animals were given a broad range of doses (ip) on days 1, 5, and 9. The maximum tolerated doses of AMD and the analogues that caused death in only 10% of the tested animals in 21 days (i.e., LD10) were recorded as MTD. […] On the basis of these values, the calculated therapeutic index values of SAD is 96, and those of RAD I, II, and III are 60, 67, and 70, respectively.\ncontrol in P388 tumor bearing mice. ^c MTD (maximum tolerated dose) i\nthe lethal dose (milligram/kilogram) for 10% normal BDF1 male mice\ndays). Values were calculated from a plot of log dose vs percent"}, "[3]": {"system": "P388/S (adriamycin sensitive) leukemia", "test": "Antitumor activity in vivo, P388/S leukemia", "design": "species or system mice", "settings": "P388/S, at optimal dose, ip days 1, 5, 9", "method": "The analogues were tested for their antitumor activities in P388 lymphocytic leukemia in male BDF1 mice.\n^a Male CDF1 mic inoculated ip: 10^6 cells inoculum, day 0.\nDrugs administered in 10% dimethyl sulfoxidesaline on days 1, 5, and 9. %\nILS = percent increase in life span. Fractions in parentheses = tumor fre\nsurvivors/total on day 60^b. P388/S (adriamycin sensitive) and\nP388/ADR (adriamycin resistant) tumors were evaluated in the same\nexperiment with agent listed."}, "colon 38 adenocarcinoma": {"system": "colon 38 adenocarcinoma", "test": "Activity against advanced colon carcinoma C38 tumor", "format": "in vivo, CDF1 mice", "settings": "for % inhibn of tumor: tumors measured day 21", "method": "In view of favorable activity agianst colon 26 carcinoma, further experiments using the active analogues were carried out on the advanced colon adenocarcinomas of mouse colon 38. […] The superiority of RAD III and SAD over AMD in inhibiting colon 38 carcinoma is evident from the data of both tumor weight inhibition and increases in survival time of the treated over nontreated mice and the larger number of long-term survivors produced by these analogues.\n^a CDF1 mice were injected sc with colon 38 adenocarcinoma\nfragments (70 mg) and treated with drugs with iv injections on day 1, 5,\nand 9 following tumor imoplantation on day 0. ^b [100 (tumor weight o\ntreated mice/tumor weight of untreated mice)] × 100; data pooled\nfrom two experiments, tumors measured on day 21 after implantation ^c\n(Median survival time of treated mice/median survival of untreated mice)\n× 100; in parenthesis, number of over 100 day survivors/number of […]"}, "[4]": {"test": "Toxic deaths in nontumored mice treated in parallel (colon 38 experiment)", "format": "in vivo", "excerpt": "× 100; in parenthesis, number of over 100 day survivors/number of\nmice in a group of nontumored mice treated in parallel with the\ntumorbearing mice and observed for 100 days."}, "[5]": {"system": "CX-1 human colon adenocarcinoma", "test": "Chemotherapy of human colon CX-1 tumor heterotransplanted in nude mice", "format": "in vivo, human tumor in athymic mice", "settings": "for % T/C, optimal: TST 15, observed day 22", "method": "Tables XI and XII show the effectiveness of SAD (2) and RAD (3b and 3c) against CX-1 human colon adenocarcinoma heterotransplanted into athymic mice, with three iv treatments with drugs on a weekly schedule starting on the 15th day of tumor transplant. AMD and the analogues were tested at doses of 45 and 60 ug/kg.\n^a -, % T/C high than 50%; ±, % T/C close to 50%; +, % T/C from 50\nto 35%; ++, % T/C from 35% to 20%; +++, % T/C lower than 20%; ++++,\nregression of the tumor to a volume lower than 10% of the volume at the\nstart of treatment. ^b Statistically significant as evaluated by the\n^a Intravenous treatment, once a week for three weeks; eight mice per\ngroup. ^b TST; number of days between tumor transplant and starting o\ntreatment. ^c Numbers in parentheses; day of observation after the […]"}, "mammary MX-1": {"system": "mammary MX-1", "test": "Treatment of mammary MX-1 tumor", "format": "in vivo", "settings": "at 60 mg/kg"}, "lung LX-1": {"system": "lung LX-1", "test": "Treatment of lung LX-1 tumor", "format": "in vivo", "settings": "at 60 mg/kg"}, "[6]": {"system": "P388/ADR (adriamycin resistant) leukemia", "test": "Antitumor activity in vivo, P388/ADR leukemia", "design": "species or system mice", "settings": "at optimal dose, ip days 1, 5, 9", "method": "The analogues were also tested against P388/ADR murine leukemia following the standard protocol (Table VI).\nILS = percent increase in life span."}, "[7]": {"settings": "at optimal dose, ip days 1, 5, 9"}}}
{"compound": "bleomycin [BLM (bleomycin)]", "values": [{"measurement": "Percentage of closed circular pBR322 DNA cleaved", "setting": "[1]", "result": 55, "unit": "%"}, {"measurement": "Percentage of closed circular pBR322 DNA cleaved", "setting": "[1]; concn 50 M (so in the source)", "result": 75, "unit": "%"}, {"measurement": "Percentage of closed circular pBR322 DNA cleaved", "setting": "[1]; concn 100 M (so in the source)", "result": 85, "unit": "%"}]}
{"compound": "Cc1nc2c(C(=O)N[C@@H]3C(=O)N[C@H](C(C)C)C(=O)N4CCC[C@H]4C(=O)N(C)CC(=O)N(C)[C@@H](C(C)C)C(=O)O[C@@H]3C)c3nc4c(C(=O)N[C@@H]5C(=O)N[C@H](C(C)C)C(=O)N6CCC[C@H]6C(=O)N(C)CC(=O)N(C)[C@@H](C(C)C)C(=O)O[C@@H]5C)c(N)c(=O)c(C)c-4oc3c(C)c2o1", "note": "[RAD I (3a)]", "values": [{"measurement": "% ILS", "setting": "B16 melanoma; [7]", "result": 124, "unit": "%"}, {"measurement": "survivors on day 65/total injected", "setting": "B16 melanoma; [7]", "result": "6/9"}, {"measurement": "MST (range), median survival time", "setting": "B16 melanoma; at optimal dose, ip days 1, 5, 9, range of days of death", "result": "65(55-62) days"}, {"measurement": "optimal dose", "setting": "B16 melanoma; ip, days 1, 5, 9", "result": 300, "unit": "μg/kg per inj"}, {"measurement": "therapeutic index MTD/MED", "setting": "P388 Leukemia; MTD in normal BDF1 mice / MED in P388 tumor bearing mice", "result": 60}, {"measurement": "MED (minimum effective dose), dose giving 45% increase in life span over control", "setting": "P388 Leukemia; ip once on days 1, 5, and 9, from plotted log-dose response data", "result": 0.03, "unit": "milligram/killogram"}, {"measurement": "MTD (maximum tolerated dose), lethal dose for 10% of normal mice (LD10)", "setting": "[2]", "result": 1.80, "unit": "milligram/kilogram"}]}
{"compound": "COc1cccc2c1C(=O)c1c(O)c3c(c(O)c1C2=O)C[C@@](O)(C(=O)CO)C[C@@H]3O[C@H]1C[C@H](N)[C@H](O)[C@H](C)O1", "note": "[adriamycin]", "values": [{"measurement": "tumor free survivors/total on day 60", "setting": "[3]", "result": "1/8"}, {"measurement": "% T/C (median survival time)", "setting": "colon 38 adenocarcinoma; dose 2.0 mg/kg iv days 1, 5, 9", "result": 103, "unit": "%"}, {"measurement": "% inhibn of tumor", "setting": "colon 38 adenocarcinoma; dose 2.0 mg/kg iv days 1, 5, 9", "result": 29, "unit": "%"}, {"measurement": "% T/C (median survival time)", "setting": "colon 38 adenocarcinoma; dose 3.0 mg/kg iv days 1, 5, 9", "result": 98, "unit": "%"}, {"measurement": "% inhibn of tumor", "setting": "colon 38 adenocarcinoma; dose 3.0 mg/kg iv days 1, 5, 9", "result": 70, "unit": "%"}, {"measurement": "% T/C (median survival time)", "setting": "colon 38 adenocarcinoma; dose 4.0 mg/kg iv days 1, 5, 9", "result": 250, "unit": "%"}, {"measurement": "over 100 day survivors/number of mice", "setting": "colon 38 adenocarcinoma; dose 4.0 mg/kg iv days 1, 5, 9", "result": "5/9"}, {"measurement": "% inhibn of tumor", "setting": "colon 38 adenocarcinoma; dose 4.0 mg/kg iv days 1, 5, 9", "result": 93, "unit": "%"}, {"measurement": "toxic deaths", "setting": "[4]; dose 2.0 mg/kg iv days 1, 5, 9", "result": "0/9"}, {"measurement": "toxic deaths", "setting": "[4]; dose 3.0 mg/kg iv days 1, 5, 9", "result": "0/9"}, {"measurement": "toxic deaths", "setting": "[4]; dose 4.0 mg/kg iv days 1, 5, 9", "result": "3/9"}, {"measurement": "toxic deaths", "setting": "[4]; dose 5.0 mg/kg iv days 1, 5, 9", "result": "8/9"}, {"measurement": "% T/C, optimal", "setting": "[5]; dose 6 × 10^3 μg/kg iv once a week for three weeks", "result": 38, "unit": "%"}, {"measurement": "% T/C, optimal", "setting": "[5]; dose 10 × 10^3 μg/kg iv once a week for three weeks", "result": 39, "unit": "%"}, {"measurement": "response of CX-1 tumor to treatment (in words)", "setting": "[5]; three iv treatments weekly from 15th day of transplant, at the doses tested", "result": "ineffective"}, {"measurement": "response of mammary MX-1 to treatment", "setting": "mammary MX-1", "result": "some positive response"}, {"measurement": "response of lung LX-1 to treatment", "setting": "lung LX-1", "result": "some positive response"}]}
{"compound": "CO[C@@]12[C@H](COC(N)=O)C3=C(C(=O)C(C)=C(N)C3=O)N1C[C@@H]1N[C@@H]12", "note": "[mitomycin C]", "values": [{"measurement": "tumor free survivors/total on day 60", "setting": "[3]", "result": "1/8"}, {"measurement": "tumor free survivors/total on day 60", "setting": "[6]", "result": "5/8"}]}
